The source made the active and inactive calls.
How the values were obtained:
[1] = target: T1, High affinity choline transporter 1 (Homo sapiens, UniProt Q9GZV3); test: human choline transporter blockers, potency – cell-based, 5-point CRC, membrane potential dye, dose response (AID 504840); assay type: functional
T1 sequence (Q9GZV3 whole entry): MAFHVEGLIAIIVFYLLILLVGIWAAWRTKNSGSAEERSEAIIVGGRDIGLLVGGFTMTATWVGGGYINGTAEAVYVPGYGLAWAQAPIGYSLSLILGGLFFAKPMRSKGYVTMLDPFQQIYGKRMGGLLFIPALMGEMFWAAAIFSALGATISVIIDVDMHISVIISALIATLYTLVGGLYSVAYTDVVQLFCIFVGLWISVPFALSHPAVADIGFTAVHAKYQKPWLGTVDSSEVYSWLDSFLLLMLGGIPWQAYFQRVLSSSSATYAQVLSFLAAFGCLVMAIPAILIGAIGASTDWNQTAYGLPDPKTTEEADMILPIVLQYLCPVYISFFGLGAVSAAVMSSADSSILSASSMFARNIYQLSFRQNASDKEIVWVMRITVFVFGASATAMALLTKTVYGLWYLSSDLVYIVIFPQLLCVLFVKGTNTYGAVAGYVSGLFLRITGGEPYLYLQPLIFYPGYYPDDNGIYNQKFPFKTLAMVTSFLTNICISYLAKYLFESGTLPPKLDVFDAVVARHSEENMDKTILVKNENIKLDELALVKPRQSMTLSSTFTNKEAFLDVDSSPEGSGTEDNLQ

[2] = target: T2, Nuclear receptor subfamily 0 group B member 1 (Homo sapiens, UniProt P51843); test: Luminescence-based cell-based high throughput dose response assay for inhibitors of the orphan nuclear receptor subfamily 0, group B, member 1 (DAX1; NR0B1). [Related pubchem assays (depositor defined):AID504766, AID504790]; assay type: functional
T2 sequence (P51843 whole entry): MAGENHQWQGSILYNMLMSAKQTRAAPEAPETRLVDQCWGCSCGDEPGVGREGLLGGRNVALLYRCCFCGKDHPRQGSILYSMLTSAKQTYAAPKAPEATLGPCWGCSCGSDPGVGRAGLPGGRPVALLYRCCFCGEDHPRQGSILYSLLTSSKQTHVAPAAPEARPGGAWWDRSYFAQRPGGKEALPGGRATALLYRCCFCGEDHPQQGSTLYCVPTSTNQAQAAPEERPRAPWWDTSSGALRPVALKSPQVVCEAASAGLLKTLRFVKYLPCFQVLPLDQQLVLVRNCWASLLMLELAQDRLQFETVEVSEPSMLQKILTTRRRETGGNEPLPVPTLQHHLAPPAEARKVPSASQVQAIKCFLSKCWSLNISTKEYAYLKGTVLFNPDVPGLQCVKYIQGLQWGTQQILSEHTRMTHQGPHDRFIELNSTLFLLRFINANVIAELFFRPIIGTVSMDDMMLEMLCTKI

HEK293 [3] = test: cells; assay type: functional, cell-based; details: Homo sapiens
HEK293 [4] = test: inhibition of NOD1-driven NF-kB reporter – cell-based, luminescence, uHTS, primary screen (AID 1578); assay type: functional; details: Homo sapiens
HEK293 [5] = test: cells; assay type: functional, cell-based; details: Homo sapiens; remark: listed apart in the source
HEK293 [6] = test: cells; assay type: functional, cell-based; details: Homo sapiens; remark: listed apart in the source
HEK293 [7] = test: NOD2 signaling inhibitors in MDP-stimulated cells, cell-based, uHTS, luminescence (AID 2001); assay type: functional; details: Homo sapiens
Aminopeptidase N = target: T3, Aminopeptidase N (Plasmodium falciparum FcB1/Columbia, UniProt O96935); test: malaria alanyl aminopeptidase activity blockers – biochemical, fluorogenic H-Leu-NHMec substrate, 1536-well (AID 1445); set-up: species or system Plasmodium falciparum 3D7, 3D7
T3 sequence (O96935 whole entry): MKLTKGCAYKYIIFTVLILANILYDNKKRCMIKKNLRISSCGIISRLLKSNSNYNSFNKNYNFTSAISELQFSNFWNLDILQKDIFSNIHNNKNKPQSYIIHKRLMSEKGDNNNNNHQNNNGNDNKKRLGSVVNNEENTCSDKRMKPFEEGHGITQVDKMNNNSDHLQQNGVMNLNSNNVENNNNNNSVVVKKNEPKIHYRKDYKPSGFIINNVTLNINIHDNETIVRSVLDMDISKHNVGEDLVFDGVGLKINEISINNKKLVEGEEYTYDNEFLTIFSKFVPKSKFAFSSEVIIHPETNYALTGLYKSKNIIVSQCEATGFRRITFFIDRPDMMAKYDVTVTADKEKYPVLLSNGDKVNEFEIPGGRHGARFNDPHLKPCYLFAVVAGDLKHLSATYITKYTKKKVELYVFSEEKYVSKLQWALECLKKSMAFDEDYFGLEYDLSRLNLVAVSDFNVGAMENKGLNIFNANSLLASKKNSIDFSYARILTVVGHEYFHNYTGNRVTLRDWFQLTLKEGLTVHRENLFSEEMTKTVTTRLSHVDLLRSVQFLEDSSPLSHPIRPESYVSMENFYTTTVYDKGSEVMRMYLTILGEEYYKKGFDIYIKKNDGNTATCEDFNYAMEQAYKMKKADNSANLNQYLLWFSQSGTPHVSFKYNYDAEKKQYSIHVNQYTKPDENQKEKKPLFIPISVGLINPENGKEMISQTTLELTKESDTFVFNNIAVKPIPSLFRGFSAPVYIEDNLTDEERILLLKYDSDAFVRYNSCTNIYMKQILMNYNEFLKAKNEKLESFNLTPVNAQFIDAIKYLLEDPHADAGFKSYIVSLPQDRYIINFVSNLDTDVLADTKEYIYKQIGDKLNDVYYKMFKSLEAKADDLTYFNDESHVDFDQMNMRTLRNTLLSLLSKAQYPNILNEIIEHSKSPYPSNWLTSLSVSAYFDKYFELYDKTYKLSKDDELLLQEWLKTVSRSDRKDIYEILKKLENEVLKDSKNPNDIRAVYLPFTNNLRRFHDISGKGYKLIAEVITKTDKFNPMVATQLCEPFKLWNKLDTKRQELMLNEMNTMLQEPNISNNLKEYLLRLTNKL

SUMO-activating enzyme [8] = target: T4, SUMO-activating enzyme (Homo sapiens, UniProt Q9UBT2); test: blockers of SAE1/SAE2–UBC9 SUMO transfer – biochemical, HTRF, uHTS, primary screen (AID 2006); assay type: protein-complex assay
T4 sequence (Q9UBE0 whole entry): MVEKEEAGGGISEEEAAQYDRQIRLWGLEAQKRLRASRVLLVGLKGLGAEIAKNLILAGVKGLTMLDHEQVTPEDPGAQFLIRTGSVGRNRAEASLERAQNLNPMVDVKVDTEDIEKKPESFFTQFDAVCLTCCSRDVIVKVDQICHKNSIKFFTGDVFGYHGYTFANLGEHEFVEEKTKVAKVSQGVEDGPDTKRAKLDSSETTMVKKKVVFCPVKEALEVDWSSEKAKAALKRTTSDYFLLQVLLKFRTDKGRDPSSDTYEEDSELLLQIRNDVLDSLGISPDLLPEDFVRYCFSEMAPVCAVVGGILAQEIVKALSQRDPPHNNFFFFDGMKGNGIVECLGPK
T4 sequence (Q9UBT2 whole entry): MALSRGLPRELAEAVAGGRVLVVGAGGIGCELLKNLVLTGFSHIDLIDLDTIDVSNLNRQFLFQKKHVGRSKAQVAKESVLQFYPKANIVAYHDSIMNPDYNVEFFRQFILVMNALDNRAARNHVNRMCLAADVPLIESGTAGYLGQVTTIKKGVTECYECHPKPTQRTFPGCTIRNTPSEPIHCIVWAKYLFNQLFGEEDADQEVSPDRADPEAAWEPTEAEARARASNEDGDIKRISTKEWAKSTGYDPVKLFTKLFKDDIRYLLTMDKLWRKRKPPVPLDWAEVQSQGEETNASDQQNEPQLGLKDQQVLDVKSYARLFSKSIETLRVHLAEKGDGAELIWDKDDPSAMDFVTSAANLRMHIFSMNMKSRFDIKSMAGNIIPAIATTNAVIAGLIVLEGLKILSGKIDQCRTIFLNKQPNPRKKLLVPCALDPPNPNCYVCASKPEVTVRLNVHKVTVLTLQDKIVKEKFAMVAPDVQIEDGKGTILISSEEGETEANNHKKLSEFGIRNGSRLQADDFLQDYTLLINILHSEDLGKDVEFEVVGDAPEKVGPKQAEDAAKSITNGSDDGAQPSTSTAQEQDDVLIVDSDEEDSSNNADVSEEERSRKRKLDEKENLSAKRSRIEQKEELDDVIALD

Phospholipase A2 = Phospholipase A2 (Homo sapiens, UniProt P04054); assay type: functional;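 also: confirmatory dose-response counterscreen on phospholipase A2, testing hits that came from an ultra-high-throughput screen for ATG4B inhibitors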
Sequence of Phospholipase A2 (P04054 whole entry): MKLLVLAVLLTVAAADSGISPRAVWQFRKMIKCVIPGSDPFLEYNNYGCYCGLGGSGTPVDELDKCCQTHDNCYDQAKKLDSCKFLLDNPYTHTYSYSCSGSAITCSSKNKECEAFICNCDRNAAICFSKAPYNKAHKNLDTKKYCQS

SUMO-activating enzyme [9] = target: T4, SUMO-activating enzyme; test: blockers of UBC9-mediated SUMO conjugation – biochemical, AlphaScreen, SUMOylation inhibitor project, confirmation (AID 2018); assay type: functional
Cysteine protease ATG4B = target: T5, Cysteine protease ATG4B (Homo sapiens, UniProt Q9Y4P1); assay type: functional;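 also: Fluorescence-based dose-response confirmation assay measuring inhibition of ATG4B activity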
T5 sequence (Q9Y4P1 whole entry): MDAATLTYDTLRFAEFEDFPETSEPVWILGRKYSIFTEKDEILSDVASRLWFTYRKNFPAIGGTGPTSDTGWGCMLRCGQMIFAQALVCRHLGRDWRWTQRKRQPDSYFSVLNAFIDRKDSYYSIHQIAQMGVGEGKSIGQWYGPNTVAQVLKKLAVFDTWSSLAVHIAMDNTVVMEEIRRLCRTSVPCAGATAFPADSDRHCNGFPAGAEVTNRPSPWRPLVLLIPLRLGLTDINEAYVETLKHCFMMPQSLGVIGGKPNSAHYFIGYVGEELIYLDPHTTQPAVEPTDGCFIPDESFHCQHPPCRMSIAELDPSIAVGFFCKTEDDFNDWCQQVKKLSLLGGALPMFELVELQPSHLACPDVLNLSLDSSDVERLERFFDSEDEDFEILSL

cells = assay type: functional
[10] = NIH-3T3 fibroblast cytotoxicity, dose response, cytotoxicity control, cell-based, fluorescence, Alamar Blue, secondary assay (AID 2327); assay type: functional;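 also: NIH-3T3 mouse fibroblasts cultured with fluconazole at 8 µg/mL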
[11] = Vero E6 cell cytotoxicity, dose response, cytotoxicity control for non-replicating M. tuberculosis project, secondary assay (AID 492998); assay type: functional, VeroE6; details: Vero C1008
[12] = Luminescence Cell-Based Dose Response HTS to Identify Activators of Luciferase Translation or Activity in H4 […] Cells. [Related pubchem assays: 1829 (Project Summary), 1814 (Primary HTS)]; assay type: functional
Vero = test: cells; assay type: functional; details: Chlorocebus sabaeus
[13] = Luminescence Cell-Based Dose Confirmation HTS to Identify Activators of 5'UTR Stem-Loop Driven Alpha-Synuclein mRNA Translation in H4 Neuroglioblastoma Cells. [Related pubchem assays: 1829 (Project Summary), 1814 (Primary HTS)]; assay type: functional
[14] = THP-1 cell cytotoxicity, dose response, cytotoxicity control for non-replicating M. tuberculosis project (AID 489025); assay type: functional
[15] = fluconazole-exposed Candida albicans growth modulators – fluorescence, retest, confirmation (AID 2467); assay type: functional, cell-based
H4 = test: Luminescence Cell-Based Dose Response HTS to Identify Activators of 5'UTR Stem-Loop Driven Prion Protein mRNA Translation in H4 Neuroglioblastoma Cells. [Related pubchem assays: 1829 (Project Summary), 1814 (Primary HTS)]; assay type: functional; details: Homo sapiens
[16] = HepG2 cell cytotoxicity, dose response, cytotoxicity control for non-replicating M. tuberculosis project (AID 489018); assay type: functional; details: Mycobacterium tuberculosis

Compound: Cc1nn(-c2ccccc2)nc1C(=O)Nc1nnc(C(F)(F)F)s1
- IC50 [1]: 17.4 µM (active)

Compound: COc1ccc(NC(=O)NNC(=O)CCC(=O)Nc2ccccc2Cl)cc1
- IC50 [2]: > 67.5 µM (inactive)
- IC50 (HEK293 [3]): > 67.5 µM (inactive)

Compound: COc1cc2ncnc(NCCc3ccccc3)c2cc1OC
- EC50 (HEK293 [4]): 19 µM (active)
- IC50 (HEK293 [5]): > 20 µM (inactive)
- IC50 (HEK293 [6]): > 20 µM (inactive)
- IC50 (HEK293 [7]): 19.3 µM (inactive)

Compound: COc1cccc(-c2nc(SCC(=O)Nc3nc(-c4ccccc4)c(C)s3)[nH]c(=O)c2C#N)c1
- IC50 (Aminopeptidase N): 21.2 µM (active)
- IC50 (SUMO-activating enzyme [8]): 15.2 µM (active)
- IC50 (Phospholipase A2): 15 µM (active)
- IC50 (SUMO-activating enzyme [9]): 5.37 µM (active)
- IC50 (Cysteine protease ATG4B): 14.9 µM (active)

Compound: O=C(Nc1cccc2ccccc12)c1ccc([N+](=O)[O-])o1
- IC50 (cells): 5.22 µM (active)
- EC50 [10]: > 150 µM (inactive)
- CC50 [11]: 6.37 µM (active)
- EC50 [12]: > 120 µM (not active)
- CC50 (Vero): 17.8 µM (active)
- EC50 [13]: > 120 µM (not active)
- CC50 [14]: 12.7 µM (active)
- EC50 [15]: 1.51 µM (active)
- EC50 (H4): > 120 µM (not active)
- CC50 [16]: 15.1 µM (active)

— ChEMBL document CHEMBL1201862, “PubChem BioAssay data set” (2004)
